These results are taken from US11976083B2, “Inhibitors of peptidylarginine deiminases” (Gilead Sciences, Inc., priority 2020, dated 2024).

T1 sequence (Q9UM07 2-663): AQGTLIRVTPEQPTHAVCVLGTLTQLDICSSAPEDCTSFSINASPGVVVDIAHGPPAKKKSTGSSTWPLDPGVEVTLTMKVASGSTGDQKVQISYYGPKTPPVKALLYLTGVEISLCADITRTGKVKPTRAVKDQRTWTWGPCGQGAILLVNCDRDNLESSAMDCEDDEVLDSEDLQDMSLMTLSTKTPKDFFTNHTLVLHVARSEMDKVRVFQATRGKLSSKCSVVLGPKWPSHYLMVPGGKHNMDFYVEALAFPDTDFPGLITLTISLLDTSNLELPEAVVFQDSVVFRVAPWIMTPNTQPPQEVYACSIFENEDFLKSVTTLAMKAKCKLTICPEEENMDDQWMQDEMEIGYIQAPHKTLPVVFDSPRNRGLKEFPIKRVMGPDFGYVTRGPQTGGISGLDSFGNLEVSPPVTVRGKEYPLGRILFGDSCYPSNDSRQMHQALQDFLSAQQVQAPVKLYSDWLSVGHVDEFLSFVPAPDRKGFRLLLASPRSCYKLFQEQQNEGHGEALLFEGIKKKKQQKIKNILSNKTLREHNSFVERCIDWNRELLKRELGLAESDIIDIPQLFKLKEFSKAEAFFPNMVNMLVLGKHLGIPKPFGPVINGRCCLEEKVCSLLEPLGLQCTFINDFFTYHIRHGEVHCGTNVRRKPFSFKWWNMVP

This experiment concerns the target T1, human PAD4 (Homo sapiens, UniProt Q9UM07).
T1 construct: human PAD4 (NM_012387), A2-P663, was PCR amplified; His-SUMO (N, cleaved yes); made in house; host or cells: E. coli BL21(DE3)
As to the kind of experiment: In vitro PAD4 BAEE biochemical assay. As to conditions: BAEE substrate 3 mM, 5 nM PAD4, 2 mM calcium chloride; geometric mean of multiple experiments. In short, it runs like this: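 Recombinant human PAD4 (5 nM final) with 2 mM CaCl2 was preincubated with compound 30 min at 25 °C in MOPS buffer pH 7.6, then reacted with 3 mM BAEE for 2 h at 25 °C. After EDTA stop, released ammonia was detected by o-phthalaldehyde/DTT fluorescence (ex 405/em 535 nm); IC50 from four-parameter fit, geometric mean.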
Turning to `CO[C@@H]1CCN(C(=O)c2cnc3c(c2)nc(-c2cc4ccc5nc4n2CCCCC[C@@H]2C[C@H]2C(=O)N[C@@H]5C)n3C2CC2)C[C@@H]1N` [Example 574, (2~{R},5~{R},7~{R})-14-[6-[(3~{S},4~{R})-3-amino-4-methoxy-piperidine-1-carbonyl]-3-cyclopropyl-imidazo [4,5-b]pyridin-2-yl]-2-methyl-3,13,19-triazatetracyclo [11.5.2.0^{5,7}.0^{16,20}] icosa-1(19),14,16(20),17-tetraen-4-one], the IC50 was 117 nM. As to `C[C@H]1NC(=O)[C@@H]2C[C@H]2CCCCCn2c(-c3nc4cc(C(=O)N[C@H]5CNC[C@H]6C[C@H]65)c(F)cc4n3C3CC3)cc3ccc1nc32` [Example 575, ~{N}-[(1~{S),5~{R},6~{R})-3-azabicyclo[4.1.0]heptan-5-yl]-1-cyclopropyl-6-fluoro-2-[(2~{R},5~{R},7~{R})-2-methyl-4-oxo-3,13,19-triazatetracyclo[11.5.2.0^ {5,7}.0^{16,20}]icosa-1(19),14,16(20),17-tetraen-14-yl]benzimidazole-5-carboxamide], the half-inhibitory concentration (IC50) is 26 nM. Next, `COc1cc(C(=O)N2CC[C@@H](OC)[C@@H](N)C2)cc2nc(-c3cc4ccc5cc4n3CCCCCc3nccnc3C(=O)N[C@@H]5C)n(C)c12` [Example 576, (2~{R})-17-[5-[(3~{S},4~ {R})-3-amino-4-methoxy-piperidine-1-carbonyl]-7-methoxy-1-methyl-benzimidazol-2-yl]-2-methyl-3,6,9,16-tetrazatetracyclo[14.5.2.0^ {5,10}.0^{19,23}] tricosa-1(22),5(10),6,8,17, 19(23),20-heptaen-4-one]: 68 nM; `COc1cc(C(=O)N2CC[C@@H](OC(F)F)[C@@H](N)C2)cc2nc(-c3cc4ccc5cc4n3CCCCCc3nccnc3C(=O)N[C@@H]5C)n(C)c12` [Example 577, (2~{R})-17-[5-[(3~{S),4~{R})-3-amino-4-(difluoromethoxy)piperidine-1-carbonyl]-7-methoxy-1-methyl-benzimidazol-2-yl]-2-methyl-3,6,9,16-tetrazatetracyclo [14.5.2.0^{5,10}.0^{19, 23}]tricosa-1(22),5(10), 6,8,17,19(23),20-heptaen-4-one]: 84 nM; `CO[C@@H]1CCN(C(=O)c2cc(F)c3c(c2)nc(-c2cc4ccc5nc4n2CCCCCc2nccnc2C(=O)N[C@@H]5C)n3C2CC2)C[C@@H]1N` [Example 578, (2~{R})-17-[5-[(3~{S},4~ {R})-3-amino-4-methoxy-piperidine-1-carbonyl]-1-cyclopropyl-7-fluoro-benzimidazol-2-yl]-2-methyl-3,6,9,16,22-pentazatetracyclo[14.5.2.0^ {5,10}.0^{19,23}] tricosa-1(22),5(10),6,8,17, 19(23),20-heptaen-4-one]: 78 nM. Consider `CO[C@@H]1CCN(C(=O)c2cc(F)c3c(c2)nc(-c2cc4ccc5nc4n2CCCCCC2C[C@H]2C(=O)N[C@@H]5C)n3C2CC2)C[C@@H]1N` (some centres unmarked) [Example 579, (2~{R},5~{R},7~{R})-14-[5-[(3~{S),4~{R})-3-amino-4-methoxy-piperidine-1-carbonyl]-1-cyclopropyl-7-fluoro-benzimidazol-2-yl]-2-methyl-3,13,19-triazatetracyclo [11.5.2.0^{5,7}.0^{16,20}] icosa-1(19),14,16(20), 17-tetraen-4-one], for which the half-maximal inhibitory concentration (IC50) came out at 50 nM.

Turning to `C[C@H]1NC(=O)[C@@H]2C[C@H]2CCCCCn2c(-c3nc4cc(C(=O)N[C@H]5CNCC[C@@H]5F)c(F)cn4c3C3CC3)cc3ccc1nc32` [Example 580, 3-cyclopropyl-6-fluoro-~ {N}-[(3~{S},4~{S})-4-fluoro-3-piperidyl]-2-[(2~{R},5~{R},7~{R})-2-methyl-4-oxo-3,13,19-triazatetracyclo[11.5.2.0^ {5,7}.0^{16,20}]icosa-1(19),14,16(20),17-tetraen-14-yl]imidazo[1,2-a] pyridine-7-carboxamide], the half-inhibitory concentration (IC50) was determined as 24 nM. Next, `COc1cc(C(=O)N2[C@H]3CC[C@@H]2[C@H](N)[C@H](OC(F)F)C3)cc2nc(-c3cc4ccc5nc4n3CCCCC[C@@H]3C[C@H]3C(=O)N[C@@H]5C)n(C)c12` [Example 581, (2~{R},5~{R},7~{R})-14-[5-[(1~{R},2~{S},3~ {R},5~{S})-2-amino-3-(difluoromethoxy)-8-azabicyclo[3.2.1]octane-8-carbonyl]-7-methoxy-1-methyl-benzimidazol-2-yl]-2-methyl-3,13,19-triazatetracyclo[11.5.2.0^ {5,7}.0^{16,20}]icosa-1(19), 14,16(20),17-tetraen-4-one]: 176 nM; `COc1cc(C(=O)N2CC[C@@H](OC(F)(F)F)[C@@H](N)C2)cc2nc(-c3cc4ccc5nc4n3CCCCC[C@@H]3C[C@H]3C(=O)N[C@@H]5C)n(C)c12` [Example 582, (2~{R},5~{R},7~{R})-14-[5-[(3~{S},4~{R})-3-amino-4-(trifluoromethoxy)piperidine-1-carbonyl]-7-methoxy-1-methyl-benzimidazol-2-yl]-2-methyl-3,13,19-triazatetracyclo[11.5.2.0^ {5,7}.0^{16,20}]icosa-1(19), 14,16(20),17-tetraen-4-one]: 271 nM; `COc1cc(C(=O)N2CC[C@@H](OC)[C@@H](N)C2)cc2nc(-c3cc4ccc5nc4n3CCCCC[C@@H]3C[C@@]3(C)C(=O)N[C@@H]5C)n(C)c12` [Example 583, (2~{R},5~{R},7~{R})-14-[5-[(3~{S),4~{R})-3-amino-4-methoxy-piperidine-1-carbonyl]-7-methoxy-1-methyl-benzimidazol-2-yl]-2,5-dimethyl-3,13,19-triazatetracyclo[11.5.2.0^ {5,7}.0^{16,20}]icosa-1(19), 14,16(20),17-tetraen-4-one]: 69 nM.

In the case of `COc1cc(C(=O)N2[C@H]3CC[C@@H]2[C@H](N)[C@H](OC)C3)cc2nc(-c3cc4ccc5nc4n3CCCCC[C@@H]3C[C@H]3C(=O)N[C@@H]5C)n(C)c12` [Example 584, (2~{R},5~{R},7~{R})-14-[5-[(1~{R},2~{S},3~ {R},5~{S})-2-amino-3-methoxy-8-azabicyclo[3.2.1]octane-8-carbonyl]-7-methoxy-1-methyl-benzimidazol-2-yl]-2-methyl-3,13,19-triazatetracyclo [11.5.2.0^{5,7}.0^{16,20}] icosa-1(19),14,16(20), 17-tetraen-4-one], the half-maximal inhibitory concentration (IC50) stood at 51 nM. For the compound `COc1cc(C(=O)N2CC[C@@H](OC)[C@@H](N)C2)cc2nc(-c3cc4ccc5nc4n3CC(F)(F)CCC[C@@H]3C[C@@]3(C)C(=O)N[C@@H]5C)n(C)c12` [Example 585, (2~{R},5~{R},7~{R})-14-[5-[(3~{S},4~{R})-3-amino-4-methoxy-piperidine-1-carbonyl]-7-methoxy-1-methyl-benzimidazol-2-yl]-11,11-difluoro-2,5-dimethyl-3,13,19-triazatetracyclo[11.5.2.0^ {5,7}.0^{16,20}]icosa-1(19),14,16(20),17-tetraen-4-one], the concentration for half-maximal inhibition (IC50) was 74 nM.

As for `COc1cc(C(=O)N2CC[C@@H](OC)[C@@H](N)C2)cc2nc(-c3cc4ccc5nc4n3CCCCCC[C@@H]3C[C@H]3C(=O)N[C@@H]5C)n(C)c12` [Example 586, (2~{R},5~{R},7~{R})-15-[5-(3~{S),4~{R})-3-[amino-4-methoxy-piperidine-1-carbonyl]-7-methoxy-1-methyl-benzimidazol-2-yl]-2-methyl-3,14,20-triazatetracyclo[12.5.2.0^ {5,7}.0^{17,21}] henicosa-1(20),15,17(21), 18-tetraen-4-one], the IC50 came out at 88 nM. As to `COc1cc(C(=O)N2CC[C@@H](OC)[C@@H](N)C2)cc2nc(-c3cc4ccc5nc4n3CC(F)(F)CCCC(C)(C)C(=O)N[C@@H]5C)n(C)c12` [Example 587, (10~{R})-16-[5-[(3~{S},4~ {R})-3-amino-4-methoxy-piperidine-1-carbonyl]-7-methoxy-1-methyl-benzimidazol-2-yl]-3,3-difluoro-7,7,10-trimethyl-1,9,18-triazatricyclo[9.5.2.0^ {14,17}]octadeca-11(18),12,14(17), 15-tetraen-8-one], the IC50 is 163 nM. Next, `COc1cc(C(=O)N2CC[C@@H](OC)[C@@H](N)C2)cc2nc(-c3cc4ccc5nc4n3CC(F)(F)CCCOC(C)(C)C(=O)N[C@@H]5C)n(C)c12` [Example 588, (11~{R})-17-[5-[(3~{S},4~ {R})-3-amino-4-methoxy-piperidine-1-carbonyl]-7-methoxy-1-methyl-benzimidazol-2-yl]-3,3-difluoro-8,8,11-trimethyl-7-oxa-1,10,19-triazatricyclo[10.5.2.0^ {15,18}]nonadeca-12(19),13,15(18), 16-tetraen-9-one]: 193 nM. In the case of `COc1cc(C(=O)N2CC[C@@H](OC)[C@@H](N)C2)cc2nc(-c3cc4ccc5nc4n3CC(F)(F)CCCOC3(CC3)C(=O)N[C@@H]5C)n(C)c12` [Example 589, (11~{R})-17-[5-[(3~{S},4~ {R})-3-amino-4-methoxy-piperidine-1-carbonyl]-7-methoxy-1-methyl-benzimidazol-2-yl]-3,3-difluoro-11-methyl-spiro[7-oxa-1,10,19-triazatricyclo[10.5.2.0^ {15,18}]nonadeca-12(19), 13,15(18),16-tetraene-8,1′-cyclopropane]-9-one], the IC50 was found to be 145 nM. The figure for `COc1cc(C(=O)N[C@H]2CNCC[C@@H]2F)cc2nc(-c3cc4ccc5nc4n3Cc3ccccc3CCCCC(=O)N[C@@H]5C)n(C)c12` [Example 590, ~{N}-[(3~{S},4~{S})-4-fluoro-3-piperidyl]-7-methoxy-1-methyl-2-[(15~{R})-15-methyl-13-oxo-1,14,23-triazatetracyclo[14.5.2.0^ {3,8}.0^{19,22}]tricosa-3(8),4,6,16,18,20,22-heptaen-21-yl] benzimidazole-5-carboxamide] is 683 nM.

The term IC50 denotes the concentration at which inhibition is half-maximal.
